# Reference: patent US12201601B2, “Treatment for obesity” (Axsome Malta Ltd., priority 2013, dated 2025)
# Experiment: 6-week randomized, double blind, active and placebo-controlled study in adult subjects with major depressive disorder: body weight
# Format: in vivo, Humans
# Experimental: A 6-week randomized, double blind, parallel group, active and placebo-controlled study was carried out to assess the efficacy of R228060 in adult subjects with major depressive disorder (MDD). Body weight was monitored throughout the study.
# [1] = Paroxetine (N = 117), baseline to endpoint
# [2] = Paroxetine group, baseline to endpoint
smiles,measurement,setting,value
"Fc1ccc([C@@H]2CCNC[C@H]2COc2ccc3c(c2)OCO3)cc1 [Paroxetine, reference compound]",Subjects with weight Decrease ≥7%,[1],0 n (%)
same,Subjects with weight Increase <7%,[1],54 (46.2) n (%)
same,Subjects with weight Increase ≥7%,[1],1 (0.9) n (%)
same,Subjects with weight No change/decrease <7%,[1],62 (53.0) n (%)
same,"Weight, End point, Mean","Paroxetine group, 6-week study",83.2 kg
same,"Weight, End point, Median","Paroxetine group, 6-week study",79.8 kg
same,Mean weight gain,[2],0.1 kg
same,"Weight, Change from Baseline, Mean",[2],0.1 kg
same,"Weight, Change from Baseline, Median",[2],0.0 kg
same,Mean change from baseline to endpoint in BMI,paroxetine,0
